The NIST ThermoML archive (doi:10.1016/j.jct.2010.09.006)

Assay: cn = amount concentration of the nth substance listed, in mol/dm3
Settings: 101 kPa, Liquid, Taylor dispersion method

[Cl][Ni][Cl] [nickel chloride (NiCl2)] + O
binary diffusion coefficient [m2/s]
Settings | c1 = 0 | c1 = 0.001 | c1 = 0.005 | c1 = 0.01 | c1 = 0.1
298.15 K | 1.26e-09 | 1.23e-09 | 1.12e-09 | 1.04e-09 | 9.86e-10
310.15 K | 1.4e-09 | 1.39e-09 | 1.37e-09 | 1.34e-09 | 1.29e-09
